# Source: publication PMC8740755 (Proceedings of the National Academy of Sciences of the …, 2021)
# Target: WipA (Legionella pneumophila, UniProt Q5ZS02)
# Sequence (Q5ZS02 1-520): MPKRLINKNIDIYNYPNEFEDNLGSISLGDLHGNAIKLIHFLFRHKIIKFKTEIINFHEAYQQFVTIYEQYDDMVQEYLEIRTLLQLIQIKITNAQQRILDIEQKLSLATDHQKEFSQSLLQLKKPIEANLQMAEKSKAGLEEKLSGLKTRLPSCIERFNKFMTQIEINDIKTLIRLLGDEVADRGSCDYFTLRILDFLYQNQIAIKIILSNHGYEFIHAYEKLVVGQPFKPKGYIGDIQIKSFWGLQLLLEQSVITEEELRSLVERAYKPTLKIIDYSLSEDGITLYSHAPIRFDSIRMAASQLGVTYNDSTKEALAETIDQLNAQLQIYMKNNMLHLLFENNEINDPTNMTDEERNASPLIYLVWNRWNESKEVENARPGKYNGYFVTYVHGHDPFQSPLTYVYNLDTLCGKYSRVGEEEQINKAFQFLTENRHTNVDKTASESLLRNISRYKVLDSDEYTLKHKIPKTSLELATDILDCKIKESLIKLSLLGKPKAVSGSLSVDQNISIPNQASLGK
compound,measurement,value
O=[N+]([O-])c1ccc(OP(=O)(O)O)cc1 [pNPP],free phosphate by malachite green assay,"exhibited robust activity, and a mutation in its active site abolished such activity"
